# Reference: ChEMBL document CHEMBL3991601, “The target landscape of clinical kinase drugs” (Science, 2017)
# Active and inactive are the calls of the source.
# Assays:
# [1] = biological target: T1, Receptor-type tyrosine-protein kinase FLT3 (Homo sapiens, UniProt P36888)
# T1 sequence (P36888 whole entry): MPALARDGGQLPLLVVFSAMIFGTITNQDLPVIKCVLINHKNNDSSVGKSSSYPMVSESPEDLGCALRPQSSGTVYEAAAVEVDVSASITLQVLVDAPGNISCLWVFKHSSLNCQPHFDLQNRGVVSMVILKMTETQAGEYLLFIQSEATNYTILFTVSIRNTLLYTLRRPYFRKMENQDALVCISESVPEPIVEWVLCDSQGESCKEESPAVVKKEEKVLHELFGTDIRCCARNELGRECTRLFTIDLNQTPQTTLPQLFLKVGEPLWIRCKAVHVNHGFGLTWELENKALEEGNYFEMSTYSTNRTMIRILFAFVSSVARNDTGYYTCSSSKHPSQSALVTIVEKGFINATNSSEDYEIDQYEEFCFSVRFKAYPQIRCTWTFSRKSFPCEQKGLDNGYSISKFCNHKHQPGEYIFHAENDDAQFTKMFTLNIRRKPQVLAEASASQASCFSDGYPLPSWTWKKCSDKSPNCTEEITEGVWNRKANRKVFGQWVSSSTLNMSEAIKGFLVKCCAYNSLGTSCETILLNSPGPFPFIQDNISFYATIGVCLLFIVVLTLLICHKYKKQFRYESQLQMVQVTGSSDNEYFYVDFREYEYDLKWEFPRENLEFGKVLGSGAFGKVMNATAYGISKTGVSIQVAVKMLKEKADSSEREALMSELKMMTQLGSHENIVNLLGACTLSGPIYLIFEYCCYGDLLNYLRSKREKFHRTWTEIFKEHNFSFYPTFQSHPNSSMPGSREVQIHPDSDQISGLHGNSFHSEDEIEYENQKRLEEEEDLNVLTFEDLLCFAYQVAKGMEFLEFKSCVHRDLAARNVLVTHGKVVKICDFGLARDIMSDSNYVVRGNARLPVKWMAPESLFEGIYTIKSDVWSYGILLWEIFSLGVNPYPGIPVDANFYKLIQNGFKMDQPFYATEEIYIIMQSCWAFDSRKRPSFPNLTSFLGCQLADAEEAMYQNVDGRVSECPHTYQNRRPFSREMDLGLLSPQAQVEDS
# [2] = biological target: T2, Dual specificity mitogen-activated protein kinase kinase 6 (Homo sapiens, UniProt P52564)
# T2 sequence (P52564 whole entry): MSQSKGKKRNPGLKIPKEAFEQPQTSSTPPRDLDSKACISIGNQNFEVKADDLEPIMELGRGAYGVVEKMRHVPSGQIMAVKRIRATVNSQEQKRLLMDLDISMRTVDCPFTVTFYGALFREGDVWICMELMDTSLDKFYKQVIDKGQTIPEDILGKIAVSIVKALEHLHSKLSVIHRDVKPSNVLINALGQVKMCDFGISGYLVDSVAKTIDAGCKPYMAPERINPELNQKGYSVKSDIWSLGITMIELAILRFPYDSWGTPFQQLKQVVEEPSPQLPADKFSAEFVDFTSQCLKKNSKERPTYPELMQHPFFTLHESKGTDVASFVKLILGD
# [3] = biological target: T3, Mitogen-activated protein kinase kinase kinase 3 (Homo sapiens, UniProt Q99759)
# T3 sequence (Q99759 whole entry): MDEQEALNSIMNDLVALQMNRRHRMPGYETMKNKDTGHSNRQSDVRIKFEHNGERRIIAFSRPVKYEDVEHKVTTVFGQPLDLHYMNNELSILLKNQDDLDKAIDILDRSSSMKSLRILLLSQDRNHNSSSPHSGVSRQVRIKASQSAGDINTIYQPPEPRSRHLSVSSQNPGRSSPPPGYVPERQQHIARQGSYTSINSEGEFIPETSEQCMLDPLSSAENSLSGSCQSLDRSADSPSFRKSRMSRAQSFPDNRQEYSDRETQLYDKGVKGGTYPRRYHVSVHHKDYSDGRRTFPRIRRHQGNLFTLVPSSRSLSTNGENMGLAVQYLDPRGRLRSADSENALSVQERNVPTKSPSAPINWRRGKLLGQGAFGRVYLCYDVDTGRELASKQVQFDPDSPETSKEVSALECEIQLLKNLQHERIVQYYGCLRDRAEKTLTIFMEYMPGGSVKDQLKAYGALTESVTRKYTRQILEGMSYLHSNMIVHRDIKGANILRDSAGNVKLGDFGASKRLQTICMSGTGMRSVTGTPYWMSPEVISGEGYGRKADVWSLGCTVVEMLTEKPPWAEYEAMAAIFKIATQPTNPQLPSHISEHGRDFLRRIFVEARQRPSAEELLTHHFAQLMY
# Septin-9 = biological target: T4, Septin-9 (Homo sapiens, UniProt Q9UHD8)
# T4 sequence (Q9UHD8 whole entry): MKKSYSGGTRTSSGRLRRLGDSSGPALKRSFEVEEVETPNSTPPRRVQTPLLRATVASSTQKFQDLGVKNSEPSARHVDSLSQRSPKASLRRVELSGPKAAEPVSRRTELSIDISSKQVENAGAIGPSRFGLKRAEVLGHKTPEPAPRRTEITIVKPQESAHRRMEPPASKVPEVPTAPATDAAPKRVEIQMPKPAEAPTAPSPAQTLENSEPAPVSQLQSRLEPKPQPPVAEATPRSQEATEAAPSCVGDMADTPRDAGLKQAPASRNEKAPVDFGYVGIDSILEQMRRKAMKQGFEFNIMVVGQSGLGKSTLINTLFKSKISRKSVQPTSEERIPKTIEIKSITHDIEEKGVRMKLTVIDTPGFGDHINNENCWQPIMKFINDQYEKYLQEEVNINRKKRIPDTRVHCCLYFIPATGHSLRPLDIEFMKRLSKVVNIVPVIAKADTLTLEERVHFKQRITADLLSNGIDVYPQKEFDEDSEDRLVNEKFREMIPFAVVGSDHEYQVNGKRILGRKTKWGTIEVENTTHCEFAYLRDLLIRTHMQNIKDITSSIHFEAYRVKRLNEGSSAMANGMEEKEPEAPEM
# Further: in the data inactive means no Kd found up to 30 µM.
Kd [1],Kd [2],Kd [3],Kd (Septin-9),Compound
> 30 µM (inactive),> 30 µM (inactive),> 30 µM (inactive),> 30 µM (inactive),CNC(=O)c1ccc(-c2cnc3ncc(Cc4ccc5ncccc5c4)n3n2)cc1F [CAPMATINIB]
> 30 µM (inactive),> 30 µM (inactive),> 30 µM (inactive),> 30 µM (inactive),COc1cc(CCc2cc(NC(=O)c3ccc(N4C[C@@H](C)N[C@@H](C)C4)cc3)n[nH]2)cc(OC)c1 [AZD-4547]
